# Reference: ChEMBL document CHEMBL3885861, “Open TG-GATES”
# Species on record: Rattus norvegicus
# Test: Open TG-GATES - Regimen: Single
# Type: toxicity, organism-based, Sprague-Dawley
# Design: regimen Single, gender Male, age 6 weeks
# Settings: in vivo, po, 2000 mg/kg, route gavage, dose level High; for APTT / Bas / Eos / Fbg / Hb / Ht / Lym / MCH / MCHC / MCV / Mono / Neu / PT / Plat / RBC / Ret / WBC: tissue Blood; for KIDNEY_L / KIDNEY_R / KIDNEY_TOTAL: tissue Kidney; for LIVER: tissue Liver; for A/G / ALP / ALT / AST / BUN / CRE / Ca / Cl / DBIL / GLC / IP / K / LDH / Na / PL / RALB / TBIL / TC / TG / TP / gamma-GTP: tissue Plasma
compound,measurement,setting,value
CC(=O)[C@@]1(O)CC[C@H]2[C@@H]3C=C(Cl)C4=CC(=O)CC[C@]4(C)[C@H]3CC[C@@]21C [CHLORMADINONE],TERMINAL_BW,3 h,222.1 g
same,APTT,3 h,22.6 s
same,Bas,3 h,0%
same,Eos,3 h,1%
same,Fbg,3 h,306 mg/dL
same,Hb,3 h,12.8 g/dL
same,Ht,3 h,39.5%
same,Lym,3 h,74.8%
same,MCH,3 h,20 pg
same,MCHC,3 h,32.4%
same,MCV,3 h,61.8 fL
same,Mono,3 h,2%
same,Neu,3 h,21.6%
same,PT,3 h,15.2 s
same,Plat,3 h,107.8 x10_4/uL
same,RBC,3 h,639.8 x10_4/ul
same,Ret,3 h,7.8%
same,WBC,3 h,55.6 x10_2/uL
same,KIDNEY_L,3 h,0.9 g
same,KIDNEY_R,3 h,1 g
same,KIDNEY_TOTAL,3 h,1.9 g
same,LIVER,3 h,10.1 g
same,A/G,3 h,1.2
same,ALP,3 h,1401.2 IU/L
same,ALT,3 h,45.6 IU/L
same,AST,3 h,81 IU/L
same,BUN,3 h,13.8 mg/dL
same,CRE,3 h,0.2 mg/dL
same,Ca,3 h,10.9 mg/dL
same,Cl,3 h,105.2 meq/L
same,DBIL,3 h,0.004 mg/dL
same,GLC,3 h,172.2 mg/dL
same,IP,3 h,8.9 mg/dL
same,K,3 h,4.2 meq/L
same,LDH,3 h,143.6 IU/L
same,Na,3 h,141.2 meq/L
same,PL,3 h,138 mg/dL
same,RALB,3 h,3 g/dL
same,TBIL,3 h,0.032 mg/dL
same,TC,3 h,73.6 mg/dL
same,TG,3 h,50.8 mg/dL
same,TP,3 h,5.5 g/dL
same,gamma-GTP,3 h,1.4 IU/L
same,TERMINAL_BW,6 h,216.3 g
same,APTT,6 h,23.1 s
same,Bas,6 h,0%
same,Eos,6 h,0.6%
same,Fbg,6 h,313.4 mg/dL
same,Hb,6 h,13.5 g/dL
same,Ht,6 h,41.5%
same,Lym,6 h,74%
same,MCH,6 h,20.8 pg
same,MCHC,6 h,32.6%
same,MCV,6 h,63.7 fL
same,Mono,6 h,1.6%
same,Neu,6 h,23.4%
same,PT,6 h,15.1 s
same,Plat,6 h,124.8 x10_4/uL
same,RBC,6 h,651.8 x10_4/ul
same,Ret,6 h,7.9%
same,WBC,6 h,64 x10_2/uL
same,KIDNEY_L,6 h,1 g
same,KIDNEY_R,6 h,1 g
same,KIDNEY_TOTAL,6 h,2 g
same,LIVER,6 h,10.3 g
same,A/G,6 h,1.2
same,ALP,6 h,1302 IU/L
same,ALT,6 h,40.4 IU/L
same,AST,6 h,72.8 IU/L
same,BUN,6 h,13 mg/dL
same,CRE,6 h,0.1 mg/dL
same,Ca,6 h,10.8 mg/dL
same,Cl,6 h,106.2 meq/L
same,DBIL,6 h,0.004 mg/dL
same,GLC,6 h,177.4 mg/dL
same,IP,6 h,9.6 mg/dL
same,K,6 h,4.8 meq/L
same,LDH,6 h,157 IU/L
same,Na,6 h,140 meq/L
same,PL,6 h,138 mg/dL
same,RALB,6 h,3.2 g/dL
same,TBIL,6 h,0.034 mg/dL
same,TC,6 h,77.2 mg/dL
same,TG,6 h,39.8 mg/dL
same,TP,6 h,5.7 g/dL
same,gamma-GTP,6 h,1.6 IU/L
same,TERMINAL_BW,9 h,215.8 g
same,APTT,9 h,24.7 s
same,Bas,9 h,0%
same,Eos,9 h,0%
same,Fbg,9 h,319.6 mg/dL
same,Hb,9 h,13 g/dL
same,Ht,9 h,40.7%
same,Lym,9 h,71.2%
same,MCH,9 h,20.2 pg
same,MCHC,9 h,31.9%
same,MCV,9 h,63.4 fL
same,Mono,9 h,1%
same,Neu,9 h,27.2%
same,PT,9 h,15.7 s
same,Plat,9 h,119.5 x10_4/uL
same,RBC,9 h,642 x10_4/ul
same,Ret,9 h,7.9%
same,WBC,9 h,51.3 x10_2/uL
same,KIDNEY_L,9 h,0.9 g
same,KIDNEY_R,9 h,1 g
same,KIDNEY_TOTAL,9 h,1.9 g
same,LIVER,9 h,9.8 g
same,A/G,9 h,1.3
same,ALP,9 h,1584 IU/L
same,ALT,9 h,39.4 IU/L
same,AST,9 h,78 IU/L
same,BUN,9 h,12.8 mg/dL
same,CRE,9 h,0.1 mg/dL
same,Ca,9 h,10.6 mg/dL
same,Cl,9 h,106.6 meq/L
same,DBIL,9 h,0 mg/dL
same,GLC,9 h,178 mg/dL
same,IP,9 h,9.4 mg/dL
same,K,9 h,4.5 meq/L
same,LDH,9 h,142 IU/L
same,Na,9 h,141 meq/L
same,PL,9 h,142.4 mg/dL
same,RALB,9 h,3.2 g/dL
same,TBIL,9 h,0.028 mg/dL
same,TC,9 h,73 mg/dL
same,TG,9 h,67.2 mg/dL
same,TP,9 h,5.7 g/dL
same,gamma-GTP,9 h,1.4 IU/L
same,TERMINAL_BW,24 h,229.8 g
same,APTT,24 h,25.3 s
same,Bas,24 h,0%
same,Eos,24 h,1%
same,Fbg,24 h,341.6 mg/dL
same,Hb,24 h,14 g/dL
same,Ht,24 h,42.6%
same,Lym,24 h,77.6%
same,MCH,24 h,20.4 pg
same,MCHC,24 h,32.8%
same,MCV,24 h,62 fL
same,Mono,24 h,2.6%
same,Neu,24 h,17.8%
same,PT,24 h,15.3 s
same,Plat,24 h,106.3 x10_4/uL
same,RBC,24 h,687 x10_4/ul
same,Ret,24 h,7.3%
same,WBC,24 h,130.3 x10_2/uL
same,KIDNEY_L,24 h,1 g
same,KIDNEY_R,24 h,1 g
same,KIDNEY_TOTAL,24 h,2 g
same,LIVER,24 h,11.8 g
same,A/G,24 h,1.2
same,ALP,24 h,1835.4 IU/L
same,ALT,24 h,51.2 IU/L
same,AST,24 h,75 IU/L
same,BUN,24 h,15.8 mg/dL
same,CRE,24 h,0.2 mg/dL
same,Ca,24 h,11.3 mg/dL
same,Cl,24 h,105.4 meq/L
same,DBIL,24 h,0 mg/dL
same,GLC,24 h,192.4 mg/dL
same,IP,24 h,7.8 mg/dL
same,K,24 h,4.7 meq/L
same,LDH,24 h,201 IU/L
same,Na,24 h,140.6 meq/L
same,PL,24 h,185.2 mg/dL
same,RALB,24 h,3.2 g/dL
same,TBIL,24 h,0.004 mg/dL
same,TC,24 h,82 mg/dL
same,TG,24 h,222 mg/dL
same,TP,24 h,5.8 g/dL
same,gamma-GTP,24 h,1.4 IU/L
